Where two headings read alike, the source gives them in different places. Values belong to the compound of their own block, whether it stands above or below them.
Tests used:
[1] = tested on: rat ileum; assay: Rat single-pass intestinal perfusion (SPIP) of acetaminophen; type: in vivo; details: for Ka / Peff / Concentration: SPIP of ileum; for Concentration: perfusate 2.5 mg/mL AP
Description: At 1 h post-oral administration, all rats were anesthetized with urethane (1.75 g/kg) and placed in a supine position. Approximately 10 cm of ileum was separated from the intestinal segments. Tubes were carefully inserted at both ends of this segment and ligated with a sterile surgical line. The segment was rinsed with 37 °C Krebs–Ringer’s (KR) solution, balanced with KR solution (containing 2.5 mg/mL AP) at a flow rate of 0.2 mL/min for 15 min, and continuously perfused with KR solution (containing 2.5 mg/mL AP). The flow rate was set as 0.2 mL/min. The outflow perfusate was collected in a pre-weighed tube, which was changed quickly every 15 min and weighed. Six tubes of this fluid were collected for each rat. The perfusion solution and outflow perfusate were diluted in methanol–water (1:9, v:v) and analyzed using HPLC.
(§1) HPLC was performed on a Shimadzu LC-20AT HPLC system equipped with a UV detector (Shimadzu, Kyoto, Japan). Sample separation was conducted in a C18 column (5 μm, 4.6 × 150 mm). The mobile phases were methanol (A) and water (B) (1:9, v:v), and the flow rate was 1 mL/min. The volume of each sample injected into the HPLC system was 10 μL. The column temperature was maintained at 25 °C, and the detection wavelength was 275 nm. Ferulic acid (final concentration of 100 μg/mL) was used as an IS.

[2] = Rat brain distribution of acetaminophen (Kp brain); type: in vivo; details: AP 1.2 g/kg oral, post-oral administration
Description: After 7 or 21 days of tail suspension, all rats were orally administered AP (1.2 g/kg). […] Rat brains were rapidly removed after perfusion with prechilled saline from rat hearts. Then, 0.1 mL of plasma from each rat was used to precipitate proteins with 300 μL of methanol. Approximately 0.1 g of the brain tissue of each rat was homogenized and ultrasonicated in 1 mL of methanol. The supernatant was removed and dried via vacuum centrifugation and reconstituted with methanol for HPLC. The brain distribution of AP was evaluated as the ratio of AP content in brain tissue (μg/g) to that in plasma (μg/mL).
as §1

[3] = parameters: method as in earlier work; details: 21 and 28 days of SMG treatment in rats; cited from earlier work
[4] = cited from earlier work
[5] = tested on: Wnt/β-catenin signaling pathway; assay: Western-Blot of Wnt/β-catenin pathway proteins and P-gp in Caco-2 cells treated with FzM1.8; type: cell-based, human
Description: Caco-2 cells were purchased from the Chinese Academy of Sciences (Shanghai, China) and maintained in MEM/EBSS medium (Hyclone, UT, USA) supplemented with 10% fetal bovine serum (Sofar, Beijing, China), 1% penicillin–streptomycin liquid (Solarbio, Beijing, China), and 1% nonessential amino acids (Gibco, New York, NY, USA) in a humidified 5% CO2 atmosphere at 37 °C. The Caco-2 cells were seeded in a T-12.5 flask (2 × 10^4 cells/cm^2) and cultured for 21 days under normal gravity. The T-12.5 flask was filled with culture medium while preventing bubble formation and then exposed to SMG using random speed 3D clinostat (National Space Science Center, Beijing, China) for 12, 24, 48, and 72 h. The Caco-2 cells in the CON group were cultured under normal gravity in the same CO2 incubator.
(§2) FzM1.8 and IWP-O1 (Wnt/β-catenin signaling pathway-specific agonist and inhibitor, respectively) were dissolved in dimethyl sulfoxide (DMSO) and diluted with culture medium to obtain the desired concentrations. The final concentration of DMSO was 0.1%. FzM1.8 (2 μM) was added to the Caco-2 cells in the CON + FzM1.8 and SMG + FzM1.8 groups. IWP-O1 (1 nM) was added to the hCMEC/D3 cells in the CON + IWPO-1 and SMG + IWPO-1 groups. The cells in the SMG, SMG + FzM1.8, or SMG + IWPO-1 group were then exposed to SMG for 48 h.
(§3) Total proteins in the rat ileum mucosa and brain and Caco-2 and hCMEC/D3 cells were extracted using radio immunoprecipitation assay buffer containing protease inhibitors and protein phosphatase inhibitors. The supernatant was collected after centrifugation (12,000× g, 4 °C, and 10 min). The protein concentration was tested using Coomassie brilliant blue staining. The supernatant was mixed with 4× protein loading buffer containing dithiothreitol (Solarbio, Beijing, China) and […] in a boiling water bath for 10 min. […] The gray value of each band was collected using Image Lab^TM Software (version 3.0, Bio-Rad, Hercules, CA, USA), and the relative expression levels of proteins were expressed as the ratio of the gray value of the target band to the total proteins in the same lane.

[6] = tested on: Wnt/β-catenin signaling pathway; assay: Western-Blot of Wnt/β-catenin pathway proteins and P-gp in hCMEC/D3 cells treated with IWP-O1; type: cell-based, human
Description: The hCMEC/D3 cells were purchased from iCell Bioscience Inc. (Shanghai, China) and cultured in RPMI 1640 medium containing 1% penicillin–streptomycin liquid (Solarbio, Beijing, China) and 10% fetal bovine serum (Tianhang, Zhejiang, China) in the same environment as that of Caco-2 cells. The hCMEC/D3 cells were seeded at a density of 6 × 10^4 cells/cm^2 and cultured for 2 days under normal gravity. The flasks were then filled with culture medium and exposed to SMG using random speed 3D clinostat for 24, 48, and 72 h. The hCMEC/D3 cells in the CON group were cultured under normal gravity in the same CO2 incubator.
as §2, §3

[7] = tested on: P-gp; assay: Ratio of Rho123 concentration in rat brain and blood (P-gp efflux function in rat brain); type: in vivo; details: Rho123 0.5 mg/kg tail vein, 15 min post-injection
Description: After 45 min, the tail veins of all rats were injected with Rho123 (0.5 mg/kg, Solarbio, Beijing, China). At 15 min post-injection, all rats were anesthetized with chloral hydrate (350 mg/kg), and the blood was collected from the heart. After being subjected to transcardiac perfusion using the stroke-physiological saline solution from the heart, the brain samples of all rats were collected. In summary, 0.1 g of brain samples were homogenized with 0.4 mL of normal saline to obtain brain homogenate. Blank plasma and brain samples were collected from rats without a Rho123 injection and used to prepare Rho123 standard curve samples. The concentration of Rho123 in plasma and brain homogenate from all rats was detected by fluorescence intensity (λ excitation/λ emission = 485/535) using a microplate reader (BioTek, Thorold, ON, Canada). The Kp brain of Rho123 was used to evaluate P-gp efflux function.

[8] = tested on: P-gp; assay: Intracellular Rho123 fluorescence intensity in hCMEC/D3 cells (P-gp efflux function); type: cell-based, human; details: Rho123 2 μM for 0.5 h
Description: The cells were then washed with phosphate buffer saline (PBS) solution five times (2 mL each time) and treated with 2 mL of 0.1% Triton X-100 for 15 min. The cell solution was transferred to a black 96-well plate (Corning, NY, USA) with six wells in each group and 200 μL in each well after brief centrifugation. The fluorescence intensity of each well was detected using a microplate reader (BioTek, Thorold, ON, Canada). The excitation/emission wavelength of Rho123 was 485/535 nm. After 24, 48, or 72 h of SMG treatment, the hCMEC/D3 cells were treated with 2 mL of medium containing Rho123 (2 μM) for 0.5 h. Subsequent operations were performed in the same way as for Caco-2 cells.

[9] = 7 days CON + Ver (30 mg/kg oral) rats
[10] = 21 days CON + Ver (30 mg/kg oral) rats

Ka [1, 9]: 8.93 ± 0.37 * 10^−2 min^−1
Peff [1, 9]: 10.77 ± 0.61 * 10^−3 cm/min
Concentration [1, 9]: 1.516 ± 0.052 mg/mL
Ka ([1]; 7 days CON rats): 7.75 ± 0.11 10^−2 min^−1
Peff ([1]; 7 days CON rats): 8.86 ± 0.16 10^−3 cm/min
Concentration ([1]; 7 days CON rats): 1.684 ± 0.015 mg/mL
Ka ([1]; 7 days SMG rats): 8.55 ± 0.21 ** 10^−2 min^−1
Peff ([1]; 7 days SMG rats): 10.11 ± 0.33 ** 10^−3 cm/min
Concentration ([1]; 7 days SMG rats): 1.571 ± 0.029 mg/mL
Increase of Ka in rat ileum ([1]; 7 days SMG vs CON): 10.3%
Increase of Peff in rat ileum ([1]; 7 days SMG vs CON): 14.1%
Ka [1, 10]: 7.44 ± 0.18 ** 10^−2 min^−1
Peff [1, 10]: 8.41 ± 0.25 ** 10^−3 cm/min
Concentration [1, 10]: 1.727 ± 0.025 mg/mL
Ka ([1]; 21 days CON rats): 5.66 ± 0.19 10^−2 min^−1
Peff ([1]; 21 days CON rats): 6.01 ± 0.23 10^−3 cm/min
Concentration ([1]; 21 days CON rats): 1.965 ± 0.033 mg/mL
Ka ([1]; 21 days SMG rats): 8.76 ± 0.47 ** 10^−2 min^−1
Peff ([1]; 21 days SMG rats): 10.47 ± 0.76 ** 10^−3 cm/min
Concentration ([1]; 21 days SMG rats): 1.54 ± 0.066 mg/mL
Increase of Ka in rat ileum ([1]; 21 days SMG vs CON): 54.8%
Increase of Peff in rat ileum ([1]; 21 days SMG vs CON): 74.2%
Increase of brain-to-plasma concentration ratio (Kp brain) ([2]; 7 days SMG vs CON): approximately 22.0%
Increase of brain-to-plasma concentration ratio (Kp brain) ([2]; 21 days SMG vs CON): 40.7%
SMILES: CC(=O)Nc1ccc(O)cc1 [AP, acetaminophen]
Absorption under SMG [3]: promoted
Absorption under SMG ([4]; 80 days of SMG treatment in humans): promoted
Absorption in astronauts ([4]; two astronauts, mission day 2 compared with before the flight): increased

SMILES: O=C(Nc1cc(O)cc(C(=O)O)c1)Nc1ccc2ccccc2c1 [FzM1.8]
P-gp expression under SMG (Western-Blot) ([5]; 2 μM before 48 h SMG, vs SMG group): up-regulate
P-gp expression (Western-Blot) ([5]; 2 μM, 48 h, vs CON group): increased
Wnt/β-catenin signaling pathway (Western-Blot) ([5]; 2 μM, 48 h, vs CON group): activated

SMILES: O=C(Cn1nnc(-c2ccncc2)c1-c1ccccc1)Nc1ccc(-c2ccccc2)cn1 [IWP-O1]
P-gp expression under SMG (Western-Blot) ([6]; 1 nM before 48 h SMG, vs SMG group): down-regulate
P-gp expression (Western-Blot) ([6]; 1 nM, 48 h, vs CON group): decreased
Wnt/β-catenin signaling pathway (Western-Blot) ([6]; 1 nM, 48 h, vs CON group): inhibited

Increase of ratio of Rho123 concentration in rat brain to that in the blood ([7]; 7 days SMG vs CON): 40.5%
Increase of ratio of Rho123 concentration in rat brain to that in the blood ([7]; 21 days SMG vs CON): 173.8%
Increase in fluorescence intensity of intracellular Rho123 ([8]; 48 h SMG vs CON): 13.4%
Increase in fluorescence intensity of intracellular Rho123 ([8]; 72 h SMG vs CON): 16.7%
SMILES: COC(=O)c1ccccc1-c1c2ccc(=N)cc-2oc2cc(N)ccc12 [Rho123, rhodamine 123]

SMILES: CC(C)Cc1ccc(C(C)C(=O)O)cc1 (stereo not drawn) [ibuprofen]
Absorption in humans under SMG ([4]; in vivo, po): promoted

SMILES: CC(CN1c2ccccc2Sc2ccccc21)N(C)C (stereo not drawn) [promethazine]
Absorption in humans under SMG ([4]; oral P-gp substrate drugs, humans under SMG): promoted

From publication PMC10049079, “Simulated Microgravity Alters P-Glycoprotein Efflux Function and Expression via the Wnt/β-Catenin Signaling Pathway in Rat Intestine and Brain” (International Journal of Molecular Sciences, 2023)
